Results published in PubChem BioAssay (NCI).
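Method: 48-hour compound exposure of cells in 96-well plates, five concentrations, linear interpolation of endpoints. Here, GI50 denotes the concentration required for 50% inhibition of growth. TGI is the concentration that stops growth completely.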

What was measured:
Experiment in all cases: NCI-60 cell line screen, 48 h
786-0 renal = test system: 786-0 renal
A498 renal = test system: A498 renal
A549 NSCLC = test system: A549 NSCLC
ACHN renal = test system: ACHN renal
BT-549 breast = test system: BT-549 breast
CCRF-CEM leukemia = test system: CCRF-CEM leukemia
COLO 205 colon = test system: COLO 205 colon
DU-145 prostate = test system: DU-145 prostate
EKVX NSCLC = test system: EKVX NSCLC
HCC-2998 colon = test system: HCC-2998 colon
HCT-116 colon = test system: HCT-116 colon
HCT-15 colon = test system: HCT-15 colon
HL-60(TB) leukemia = test system: HL-60(TB) leukemia
HOP-62 NSCLC = test system: HOP-62 NSCLC
HOP-92 NSCLC = test system: HOP-92 NSCLC
HS 578T breast = test system: HS 578T breast
HT29 colon = test system: HT29 colon
IGROV1 ovarian = test system: IGROV1 ovarian
K-562 leukemia = test system: K-562 leukemia
KM12 colon = test system: KM12 colon
LOX IMVI melanoma = test system: LOX IMVI melanoma
M14 melanoma = test system: M14 melanoma
MALME-3M melanoma = test system: MALME-3M melanoma
MCF7 breast = test system: MCF7 breast
MDA-MB-231 breast = test system: MDA-MB-231 breast
MDA-MB-435 = test system: MDA-MB-435
MOLT-4 leukemia = test system: MOLT-4 leukemia
NCI-H226 lung = test system: NCI-H226 lung
NCI-H23 lung = test system: NCI-H23 lung
NCI-H460 lung = test system: NCI-H460 lung
NCI-H522 lung = test system: NCI-H522 lung
NCI/ADR-RES ovarian = test system: NCI/ADR-RES ovarian
OVCAR-3 ovarian = test system: OVCAR-3 ovarian
OVCAR-4 ovarian = test system: OVCAR-4 ovarian
OVCAR-5 ovarian = test system: OVCAR-5 ovarian
OVCAR-8 ovarian = test system: OVCAR-8 ovarian
PC-3 prostate = test system: PC-3 prostate
RXF 393 renal = test system: RXF 393 renal
SF-268 CNS = test system: SF-268 CNS
SF-295 CNS = test system: SF-295 CNS
SF-539 CNS = test system: SF-539 CNS
SK-MEL-2 melanoma = test system: SK-MEL-2 melanoma
SK-MEL-28 melanoma = test system: SK-MEL-28 melanoma
SK-MEL-5 melanoma = test system: SK-MEL-5 melanoma
SK-OV-3 ovarian = test system: SK-OV-3 ovarian
SN12C renal = test system: SN12C renal
SNB-19 CNS = test system: SNB-19 CNS
SNB-75 CNS = test system: SNB-75 CNS
SW-620 colon = test system: SW-620 colon
T-47D breast = test system: T-47D breast
TK-10 renal = test system: TK-10 renal
U251 CNS = test system: U251 CNS
UACC-257 melanoma = test system: UACC-257 melanoma
UACC-62 melanoma = test system: UACC-62 melanoma
UO-31 renal = test system: UO-31 renal

## C#CCN(CCCOc1ccc(Cl)cc1Cl)CCCSC(=O)CCCCCN1/C(=C\C=C2/CCCC(/C=C/C3=[N+](CCCCCC(=O)[O-])c4ccccc4C3(C)C)=C2Cl)C(C)(C)c2ccccc21
786-0 renal
  GI50: 1780 nM
  TGI: 3500 nM
A498 renal
  GI50: 1310 nM
  TGI: 4120 nM
A549 NSCLC
  GI50: 3220 nM
  TGI: 13200 nM
ACHN renal
  GI50: 2650 nM
  TGI: 7500 nM
BT-549 breast
  GI50: 1050 nM
  TGI: 2340 nM
CCRF-CEM leukemia
  GI50: 344 nM
  TGI: 4380 nM
COLO 205 colon
  GI50: 1410 nM
  TGI: 3390 nM
DU-145 prostate
  GI50: 3020 nM
  TGI: 10900 nM
EKVX NSCLC
  GI50: 2420 nM
  TGI: 12800 nM
HCC-2998 colon
  GI50: 1780 nM
  TGI: 3510 nM
HCT-116 colon
  GI50: 1630 nM
  TGI: 3140 nM
HCT-15 colon
  GI50: 4120 nM
  TGI: 21900 nM
HL-60(TB) leukemia
  GI50: 1620 nM
  TGI: 4790 nM
HOP-62 NSCLC
  GI50: 2100 nM
  TGI: 5720 nM
HOP-92 NSCLC
  GI50: 1570 nM
  TGI: 3530 nM
HS 578T breast
  GI50: 1470 nM
  TGI: 6400 nM
HT29 colon
  GI50: 2490 nM
  TGI: 6470 nM
IGROV1 ovarian
  GI50: 1420 nM
  TGI: 3340 nM
K-562 leukemia
  GI50: 667 nM
  TGI: > 100000 nM
KM12 colon
  GI50: 1560 nM
  TGI: 4460 nM
LOX IMVI melanoma
  GI50: 1460 nM
  TGI: 2830 nM
M14 melanoma
  GI50: 1610 nM
  TGI: 3360 nM
MALME-3M melanoma
  GI50: 1210 nM
  TGI: 2850 nM
MCF7 breast
  GI50: 1240 nM
  TGI: 3530 nM
MDA-MB-231 breast
  GI50: 1940 nM
  TGI: 4640 nM
MDA-MB-435
  GI50: 1460 nM
  TGI: 3150 nM
MOLT-4 leukemia
  GI50: 1480 nM
  TGI: > 100000 nM
NCI-H226 lung
  GI50: 1720 nM
  TGI: 4110 nM
NCI-H23 lung
  GI50: 1940 nM
  TGI: 5090 nM
NCI-H460 lung
  GI50: 1770 nM
  TGI: 5010 nM
NCI-H522 lung
  GI50: 1160 nM
  TGI: 3340 nM
NCI/ADR-RES ovarian
  GI50: 20200 nM
  TGI: 62300 nM
OVCAR-3 ovarian
  GI50: 1450 nM
  TGI: 3310 nM
OVCAR-4 ovarian
  GI50: 2020 nM
  TGI: 6720 nM
OVCAR-5 ovarian
  GI50: 1780 nM
  TGI: 3920 nM
OVCAR-8 ovarian
  GI50: 1990 nM
  TGI: 6830 nM
PC-3 prostate
  GI50: 1690 nM
  TGI: 4010 nM
RXF 393 renal
  GI50: 1660 nM
  TGI: 3370 nM
SF-268 CNS
  GI50: 1840 nM
  TGI: 6740 nM
SF-295 CNS
  GI50: 1910 nM
  TGI: 4060 nM
SF-539 CNS
  GI50: 1200 nM
  TGI: 2710 nM
SK-MEL-2 melanoma
  GI50: 1770 nM
  TGI: 4200 nM
SK-MEL-28 melanoma
  GI50: 708 nM
  TGI: 2430 nM
SK-MEL-5 melanoma
  GI50: 1620 nM
  TGI: 3020 nM
SK-OV-3 ovarian
  GI50: 2970 nM
  TGI: 8860 nM
SN12C renal
  GI50: 587 nM
  TGI: 2740 nM
SNB-19 CNS
  GI50: 1120 nM
  TGI: 3640 nM
SNB-75 CNS
  GI50: 1300 nM
  TGI: 3850 nM
SW-620 colon
  GI50: 1650 nM
  TGI: 5440 nM
T-47D breast
  GI50: 768 nM
  TGI: 3210 nM
TK-10 renal
  GI50: 2210 nM
  TGI: 5170 nM
U251 CNS
  GI50: 733 nM
  TGI: 2110 nM
UACC-257 melanoma
  GI50: 1800 nM
  TGI: 4030 nM
UACC-62 melanoma
  GI50: 1150 nM
  TGI: 3140 nM
UO-31 renal
  GI50: 10600 nM
  TGI: 26200 nM
